Laboratory results from patent US20040175447A1, “Feeds and fertilizers containing pentacyclic triterpenes” (The Nisshin OilliO, Ltd., priority 2001, published 2004).

Test system: B-16 melanoma cells
Assay: Evaluation of melanin production-inhibitory effect (cell-whitening degree of cultured B-16 melanoma cells); as to Melanin production-inhibitory effect (cell-whitening degree): key: ++: The whitening degree is higher than that observed for the positive control; +: The whitening degree is almost identical to that observed for the positive control; ±: The whitening degree is not higher than that observed for the positive control, but higher than that observed for the control; −: The whitening degree is almost identical to that observed for the control
Format: cell-based
Settings: for Melanin production-inhibitory effect (cell-whitening degree): positive control 450 ppm vitamin C-magnesium phosphate; for melanogenesis-inhibitory function relative to that observed when 450 ppm of vitamin C-magnesium phosphate (standard) is added: from Table 1
Description: In the present invention, the melanogenesis-inhibitory effect is evaluated and compared on the basis of the results of tests for examining the melanogenesis-inhibitory function in which B-16 melanoma cells are cultivated, as a primary evaluation. Moreover, a feed is, for instance, practically prepared and its effectiveness in the melanogenesis-inhibition is evaluated as a secondary evaluation. It has been confirmed that the pentacyclic triterpenes whose strong melanogenesis-inhibitory function is confirmed by the cell culture test as the primary evaluation also show an excellent effect in the secondary evaluation test. In addition, it has also been confirmed that there is a correlation between the results obtained in these two evaluation methods.
If the culture system includes a melanogenesis-inhibitory substance during the proliferation thereof, the blackening of the cells is suppressed while the whitening thereof is relatively promoted. Accordingly, the melanogenesis-inhibitory function of the substance can be evaluated by comparing the degree of whitening observed for the substance with the degree of blackening observed for a control. The evaluated results of the melanogenesis-inhibitory effect obtained in this cell culture system clearly indicate that the pentacyclic triterpenes and/or physiologically acceptable salts thereof or derivatives thereof have quite strong melanogenesis-inhibitory effects. For instance, when comparing the effects thereof with that achieved by vitamin C-magnesium phosphate, the melanogenesis-inhibitory effect is about 100 to 200 times, for maslinic acid, about 100 to 200 times, for maslinic acid salts, about 10 to 100 times, for erythrodiol, about 30 to 120 times, for uvaol, about 30 to 120 times, for betulinic acid, about 10 to 100 times, for betulin, about 100 to 200 times, for ethyl maslinate, about 50 to 150 times, for acetylated maslinic acid, about 30 to 120 times, for triethylsilylated maslinic acid, about 50 to 150 times, for stearoyl derivative of ethyl maslinate, about 10 to 100 times, for acetylated erythrodiol, about 10 to 100 times, for acetylated uvaol, about 10 to 100 times, for ethyl betulinate, and about 5 to 50 times, for acetylated betulin, that observed for the vitamin C-magnesium phosphate.
A culture medium was dispensed to wells of a 6-well plate (2 mL/well each), followed by inoculation of a desired amount of B-16 melanoma cells on each well, allowing the wells to stand at 37° C. and 5% CO2 to thus cultivate the cells. On the day subsequent thereto, a candidate sample (pentacyclic triterpenes) solution prepared was added to and mixed with the culture medium containing the cells and the cultivation was continued. The culture medium was replaced with fresh one on the 5th day from the initiation of the cultivation and the prepared sample solution was again added to the wells. On the next day, the culture medium was removed to recover the cells, followed by the washing of these cells with PBS (phosphate buffered physiological saline) and the subsequent evaluation of the cell-whitening degree. In this respect, the melanogenesis-inhibitory function was evaluated by comparing the cell-whitening degree thus obtained with that observed when using 450 ppm of vitamin C-magnesium phosphate as a known whitening agent (a positive control) and that obtained when any candidate sample was not used (control), according to the following evaluation criteria.
The evaluation criteria for the cell-whitening degree are as follows:
Regarding the results listed in Table 1, the whitening degree observed when adding 450 ppm of vitamin C-magnesium phosphate is selected as a standard.

Compound | Melanin production-inhibitory effect (cell-whitening degree) (2 ppm) | Melanin production-inhibitory effect (cell-whitening degree) (6 ppm) | Melanin production-inhibitory effect (cell-whitening degree) (10 ppm) | Melanin production-inhibitory effect (cell-whitening degree) (25 ppm) | Melanin production-inhibitory effect (cell-whitening degree) (50 ppm) | melanogenesis-inhibitory function relative to that observed when 450 ppm of vitamin C-magnesium phosphate (standard) is added | Melanin production-inhibitory effect (cell-whitening degree) (4 ppm) | Melanin production-inhibitory effect (cell-whitening degree) (8 ppm) | Melanin production-inhibitory effect (cell-whitening degree) (15 ppm) | Melanin production-inhibitory effect (cell-whitening degree) (100 ppm) | Melanin production-inhibitory effect (cell-whitening degree) (200 ppm) | Melanin production-inhibitory effect (cell-whitening degree) (300 ppm) | Melanin production-inhibitory effect (cell-whitening degree) (450 ppm)
CC[Si](CC)(CC)OC(=O)[C@]12CCC(C)(C)C[C@H]1C1=CC[C@@H]3[C@@]4(C)C[C@@H](O[Si](CC)(CC)CC)[C@H](O[Si](CC)(CC)CC)C(C)(C)[C@@H]4CC[C@@]3(C)[C@]1(C)CC2 [Compound of Synthesis 3, Triethylsilyl Ester of 2,3-O-Di-Triethylsilyl-Maslinic Acid] | − | ± | + | + | + | about 40 times |  |  |  |  |  |  | 
C[C@H]1[C@H](C)CC[C@]2(C(=O)O)CC[C@]3(C)C(=CC[C@@H]4[C@@]5(C)CC[C@H](O)C(C)(C)[C@@H]5CC[C@]43C)[C@H]12 [Ursolic acid] | ± | ++ | ++ |  |  | about 110 times | + | ++ |  |  |  |  | 
CCOC(=O)[C@]12CCC(C)(C)C[C@H]1C1=CC[C@@H]3[C@@]4(C)C[C@@H](O)[C@H](O)C(C)(C)[C@@H]4CC[C@@]3(C)[C@]1(C)CC2 [Compound of Synthesis 1, Ethyl Ester of Maslinic Acid] | ± | ++ | ++ |  |  | about 110 times | + | ++ |  |  |  |  | 
O=c1cc(CO)occ1O [Kojic Acid, reference compound] |  |  | − | − | ± |  |  |  | − | ± | + | ++ | ++
CC1(C)CC[C@]2(C(=O)O)CC[C@]3(C)C(=CC[C@@H]4[C@@]5(C)C[C@@H](O)[C@H](O)C(C)(C)[C@@H]5CC[C@]43C)[C@@H]2C1 [Purified maslinic acid 2, maslinic acid] | ± | ++ | ++ |  |  |  | + | ++ |  |  |  |  | 
